# Values quoted from earlier work in US20100179144A1, “QUINAZOLINE DERIVATIVES AS P13 KINASE INHIBITORS” (priority 2007, published 2010).
# System: Class I PI3-kinases
# Details: about; Fruman et al. 1998; read-out: IC50 against each of these PI3-kinases
smiles,measurement,value
O=c1cc(N2CCOCC2)oc2c(-c3ccccc3)cccc12 [LY294002],IC50,15 to 20 µM
